Source: US20240376517A1 (THE UNIVERSITY COURT OF THE UNIVERSITY OF EDINBURCH, priority 2021, published 2024)
*1 amine or outer side, *2 acyl side, *3 side chain or, on linkers, in order; H or OH if unused. Where a SMILES comes first, the peptide text is derived from it. [ ]: non-standard residue; d: D form. The star is where a group is joined. ξ: configuration not given here. BODIPY(FL) = CC1=CC(C)=[N+]2C1=Cc1ccc(CCC(=O)*)n1[B-]2(F)F; X1 = CN(C)c1ccc(/N=N/c2ccc(C(=O)*)cc2)cc1; Ethylenediamine = C(CN[*:2])N[*:1]; Ile(3ξ) = CCC(C)[C@H](N)C(=O)O

Tests used:
mKate-E0771 cancer cells = assay type: cell-based, mouse
Experimental: FIG. 8. […] Cell viability was determined using a commercially available MTT kit (Invitrogen) with values normalized to untreated cells. Data presented as mean values±SEM (2 independent experiments with 3 replicates for each).

hGzmB = hGzmB (Homo sapiens, UniProt P10144); assay: HPLC conversion/cleavage of probes by hGzmB; assay type: biochemical; conditions: 20 nM hGzmB, 2 h
Text: FIG. 5. HPLC traces of the probe H5 before and after reaction with hGzmB. HPLC chromatogram and mass spectrometry analysis of the probe H5 before and after reaction with increasing concentrations of hGzmB. Mcalc. (intact probe): 1246.6 [M+Na^+]; Mcalc. (cleaved probe): 747.2 [M+H^+].

[1] = biological target: human recombinant granzyme B (Homo sapiens, UniProt P10144); assay: HPLC/MS analysis of probe cleavage by granzyme B in urine; assay type: biochemical; conditions: after 1 h with granzyme B present
Experimental: (§1) Following incubation, the samples were diluted with MeOH, centrifuged and the supernatant injected into the HPLC/MS. Samples were eluted with 0.1% HCOOH in H2O (A) and 0.1% HCOOH in MBCN (B), with a gradient of 0 to 100% B over 5 minutes and an additional isocratic period of 3 minutes with a flow rate of 1.5 mL min^−1. Reactions were monitored from 220-700 nm and percentage cleaved was determined by comparing peak area of the cleaved probe against the intact probe on MassLynx software.

[2] = assay type: in vitro ADME, human
Experimental: as §1, with “Probe (H5 or R7) (25 μM) was incubated with human recombinant granzyme B (15 nM) in Granzyme B buffer for 1.5 h at 37° C. Following” for “Following”
We first sought to address the stability of probe H5 and R7 and in urine from 3 healthy donors to ensure no cross-reactivity occurred with any other biomolecules that may be present in all urine samples. To do this we monitored the fluorescence response of probe H5 and R7 in urine with and without spiked granzyme B (15 nM) and also assessed stability via HPLC analysis. […] (FIG. 11). It should also be noted that HPLC-MS confirmed the cleavage of probe H5 and R7 after the aspartic acid residue (the natural granzyme B cleavage site).

human recombinant granzyme B, sequence (P10144 21-247): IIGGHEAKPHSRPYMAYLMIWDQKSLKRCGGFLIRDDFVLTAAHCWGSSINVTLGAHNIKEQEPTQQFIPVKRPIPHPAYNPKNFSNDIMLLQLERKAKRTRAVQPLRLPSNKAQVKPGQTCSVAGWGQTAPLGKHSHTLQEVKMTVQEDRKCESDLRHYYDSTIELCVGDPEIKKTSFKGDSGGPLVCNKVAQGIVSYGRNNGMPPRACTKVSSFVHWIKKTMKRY
hGzmB, sequence (P10144 21-247): as above

In the case of `CCC(C)[C@H](NC(=O)CCC1=[N+]2C(=Cc3c(C)cc(C)n3[B-]2(F)F)C=C1)C(=O)N[C@@H](CCC(=O)O)C(=O)N1CCC[C@H]1C(=O)N[C@@H](CC(=O)O)C(=O)N[C@@H](C)C(=O)N[C@@H](CC(C)C)C(=O)NCCNC(=O)c1ccc(/N=N/c2ccc(N(C)C)cc2)cc1` (stereo partly shown) [H5] ({BODIPY(FL)}-[Ile(3ξ)]EPDAL-{Ethylenediamine-X1}), the “cytotoxicity (cell viability)” value (mKate-E0771 cancer cells) is reported as “not cytotoxic”, the “HPLC conversion (20 nM hGzmB, 2 h)” value (hGzmB) is reported as 100% and the “conversion to the cleaved probe in urine” value [1] is reported as “up to 84%”. The “probe cleaved in the urine sample alone (HPLC)” value [2] was “less than 1%”.
